# Measurements published in US9139532B2, “Pyrazolyl guanidine F1F0-atpase inhibitors and therapeutic uses thereof” (Lycera Corporation, priority 2010, dated 2015).
# Read-outs that look alike come from different tables or passages of the source.
# Columns and labels:
# F1F0-ATPase = target: T1, F1F0-ATPase (Bos taurus, UniProt P13621); assay: Inhibition of F1F0-ATPase activity in synthesizing ATP; assay type: biochemical; settings: inhibition of ATP synthesis by F1F0-ATPase; read-out: ATP Syn IC50
# T1 construct: from tissue
# Ramos cells = assay: Cytotoxicity in Ramos cells; assay type: cell-based; settings: cytotoxicity in Ramos cells, read-out: Ramos Cell EC50
Structure (SMILES),IC50 (F1F0-ATPase) [µM],EC50 (Ramos cells; Homo sapiens) [µM],EC50 (Ramos cells) [µM]
O=C(/N=C(/NCC(F)(F)F)Nc1cc(C(F)(F)F)[nH]n1)c1ccc(C(F)(F)F)cc1 [Compound A-1],< 10,< 10,
O=C(/N=C(/NCc1cccc(C(F)(F)F)c1)Nc1cc(C(F)(F)F)[nH]n1)c1ccc(C(F)(F)F)cc1 [Compound A-2],< 10,< 10,
O=C(/N=C(/NCc1ccc(F)c(Cl)c1)Nc1cc(C(F)(F)F)[nH]n1)c1ccc(Cl)c(F)c1 [Compound A-3],< 10,< 10,
CC(C)(C)N/C(=N/C(=O)c1ccc(Cl)cc1)Nc1cc(C(F)(F)F)[nH]n1 [Compound A-4],< 10,< 10,
O=C(/N=C(/NCC(F)(F)F)Nc1cc(C(F)(F)F)[nH]n1)c1ccc(Cl)cc1 [Compound A-5],< 10,< 10,
CC1(N/C(=N/C(=O)c2ccc(Cl)cc2)Nc2cc(C(F)(F)F)[nH]n2)CCC1 [Compound A-6],< 10,< 10,
O=C(/N=C(\Nc1cc(C(F)(F)F)[nH]n1)NC(C1CC1)C1CC1)c1ccc(Cl)cc1 [Compound A-7],< 10,< 10,
O=C(/N=C(/NCc1ccccc1C(F)(F)F)Nc1cc(C(F)(F)F)n[nH]1)c1ccc(F)c(F)c1 [Compound A-8],< 10,< 10,
O=C(/N=C(/NCc1ccccc1C(F)(F)F)Nc1cc(C(F)(F)F)n[nH]1)c1ccc(Cl)cc1 [Compound A-9],< 10,< 10,
O=C(/N=C(/NCc1cccc(C(F)(F)F)c1)Nc1cc(C(F)(F)F)n[nH]1)c1ccc(Cl)cc1 [Compound A-10],< 10,< 10,
O=C(/N=C(/NCC(F)(F)F)Nc1cc(C(F)(F)F)n[nH]1)c1ccc(F)c(F)c1 [Compound A-11],< 10,< 10,
CC(C)(C)N/C(=N/C(=O)c1ccc(F)c(F)c1)Nc1cc(C(F)(F)F)n[nH]1 [Compound A-12],< 10,< 10,
CC(C)(C)N/C(=N/C(=O)c1ccc(C(F)(F)F)cc1)Nc1cc(C(F)(F)F)n[nH]1 [Compound A-13],< 10,< 10,
O=C(/N=C(\Nc1cc(C(F)(F)F)[nH]n1)NC1CCCCCC1)c1ccc(C(F)(F)F)cc1 [Compound A-14],< 10,< 10,
CC(C)(C)c1cc(N/C(=N\C(=O)c2ccc(Cl)cc2)NC(C2CC2)C2CC2)n[nH]1 [Compound A-15],< 10,< 10,
CC(C)(C)c1cc(N/C(=N\C(=O)c2ccc(Cl)cc2)NCC(F)(F)F)n[nH]1 [Compound A-16],< 10,< 10,
CC1(N/C(=N/C(=O)c2ccc(Cl)cc2)Nc2cc(C(C)(C)C)[nH]n2)CCC1 [Compound A-17],< 10,< 10,
O=C(/N=C(/NCc1ccc(F)cc1Cl)Nc1cc(C(F)(F)F)[nH]n1)c1ccc(C(F)(F)F)cc1 [Compound A-18],< 10,< 10,
O=C(/N=C(/NCc1ccc(F)c(Cl)c1)Nc1cc(C(F)(F)F)[nH]n1)c1ccc(C(F)(F)F)cc1 [Compound A-19],< 10,< 10,
O=C(/N=C(/NCc1ccc(Cl)c(F)c1)Nc1cc(C(F)(F)F)[nH]n1)c1ccc(C(F)(F)F)cc1 [Compound A-20],< 10,< 10,
O=C(/N=C(/NCc1ccc(Cl)cc1F)Nc1cc(C(F)(F)F)[nH]n1)c1ccc(C(F)(F)F)cc1 [Compound A-21],< 10,< 10,
CC(N/C(=N/C(=O)c1ccc(C(F)(F)F)cc1)Nc1cc(C(F)(F)F)[nH]n1)c1ccccc1Cl (centres unmarked) [Compound A-22],< 10,< 10,
CC(N/C(=N/C(=O)c1ccc(C(F)(F)F)cc1)Nc1cc(C(F)(F)F)[nH]n1)c1ccc(Cl)cc1 (centres unmarked) [Compound A-23],< 10,< 10,
O=C(/N=C(/NCc1ccc(F)cc1Cl)Nc1cc(C(F)(F)F)[nH]n1)c1ccc(F)c(F)c1 [Compound A-24],< 10,< 10,
O=C(/N=C(/NCc1ccc(F)c(Cl)c1)Nc1cc(C(F)(F)F)[nH]n1)c1ccc(F)c(F)c1 [Compound A-25],< 10,< 10,
O=C(/N=C(/NCc1ccc(Cl)c(F)c1)Nc1cc(C(F)(F)F)[nH]n1)c1ccc(F)c(F)c1 [Compound A-26],< 10,< 10,
O=C(/N=C(/NCc1ccc(Cl)cc1F)Nc1cc(C(F)(F)F)[nH]n1)c1ccc(F)c(F)c1 [Compound A-27],< 10,< 10,

Structure (SMILES),IC50 (F1F0-ATPase) [µM],EC50 (Ramos cells; Homo sapiens) [µM],EC50 (Ramos cells) [µM]
CC(N/C(=N/C(=O)c1ccc(F)c(F)c1)Nc1cc(C(F)(F)F)[nH]n1)c1ccccc1Cl (centres unmarked) [Compound A-28],< 10,< 10,
CC(N/C(=N/C(=O)c1ccc(F)c(F)c1)Nc1cc(C(F)(F)F)[nH]n1)c1ccc(Cl)cc1 (centres unmarked) [Compound A-29],< 10,< 10,
O=C(/N=C(/NCc1ccc(F)cc1Cl)Nc1cc(C(F)(F)F)[nH]n1)c1ccc(Cl)cc1 [Compound A-30],< 10,< 10,
O=C(/N=C(/NCc1ccc(F)c(Cl)c1)Nc1cc(C(F)(F)F)[nH]n1)c1ccc(Cl)cc1 [Compound A-31],< 10,< 10,
O=C(/N=C(/NCc1ccc(Cl)c(F)c1)Nc1cc(C(F)(F)F)[nH]n1)c1ccc(Cl)cc1 [Compound A-32],< 10,< 10,
O=C(/N=C(/NCc1ccc(Cl)cc1F)Nc1cc(C(F)(F)F)[nH]n1)c1ccc(Cl)cc1 [Compound A-33],< 10,< 10,
CC(N/C(=N/C(=O)c1ccc(Cl)cc1)Nc1cc(C(F)(F)F)[nH]n1)c1ccccc1Cl (centres unmarked) [Compound A-34],< 10,< 10,
CC(N/C(=N/C(=O)c1ccc(Cl)cc1)Nc1cc(C(F)(F)F)[nH]n1)c1cccc(Cl)c1 (centres unmarked) [Compound A-35],< 10,< 10,
CC(N/C(=N/C(=O)c1ccc(Cl)cc1)Nc1cc(C(F)(F)F)[nH]n1)c1ccc(Cl)cc1 (centres unmarked) [Compound A-36],< 10,< 10,
CC(C)(C)N/C(=N/C(=O)c1ccc(Cl)cc1)Nc1n[nH]cc1C#N [Compound A-37],< 10,> 10,
CC1(N/C(=N/C(=O)c2ccc(Cl)cc2)Nc2n[nH]c3ccccc23)CCC1 [Compound A-38],< 10,< 10,
O=C(/N=C(/NCc1cc(F)c(F)c(F)c1)Nc1cc(C(F)(F)F)[nH]n1)c1ccc(F)c(F)c1 [Compound A-39],< 10,,
CC(C)(C)N/C(=N/C(=O)c1ccc(Cl)c(F)c1)Nc1cc(C(F)(F)F)[nH]n1 [Compound A-40],< 10,< 10,
O=C(/N=C(\Nc1cc(C(F)(F)F)[nH]n1)NC1CCCCCC1)c1ccc(F)c(F)c1 [Compound A-41],< 10,< 10,
CC(C)(C)CN/C(=N/C(=O)c1ccc(Cl)cc1)Nc1cc(C(F)(F)F)n[nH]1 [Compound A-42],< 10,< 10,
CC(C)(C)CN/C(=N/C(=O)c1ccc(F)c(F)c1)Nc1cc(C(F)(F)F)n[nH]1 [Compound A-43],< 10,< 10,
CN(/C(=N\C(=O)c1ccc(F)c(F)c1)NC(C)(C)C)c1cc(C(F)(F)F)[nH]n1 [Compound A-44],> 10,> 10,
Cc1cc(N/C(=N\C(=O)c2ccc(F)c(F)c2)Nc2cc(F)cc(Cl)c2)n[nH]1 [Compound A-45],< 10,> 10,
COC(=O)c1cc(N/C(=N\C(=O)c2ccc(C(F)(F)F)cc2)NC(C)(C)C)[nH]n1 [Compound A-339],,,> 10
CC(C)(C)N/C(=N/C(=O)c1ccc(Cl)c(F)c1)Nc1cc(-c2cc(F)cc(F)c2)n[nH]1 [Compound A-354],,,< 10
CC1(N/C(=N/C(=O)c2ccc(Cl)c(F)c2)Nc2cc(-c3cc(F)cc(F)c3)n[nH]2)CCCC1 [Compound A-355],,,> 10
CCC(C)N/C(=N/C(=O)c1ccc(Cl)c(F)c1)Nc1cc(-c2cc(F)cc(F)c2)n[nH]1 (centres unmarked) [Compound A-356],,,< 10
CC(C)(N/C(=N/C(=O)c1ccc(Cl)c(F)c1)Nc1cc(-c2cc(F)cc(F)c2)n[nH]1)C(F)(F)F [Compound A-357],,,> 10
CC1(N/C(=N/C(=O)c2ccc(Cl)c(F)c2)Nc2cc(-c3cc(F)cc(F)c3)n[nH]2)CC1 [Compound A-358],,,< 10
COCC(C)(C)NC(=NC(=O)c1cccc(C#N)c1)Nc1cc(-c2ccc(F)cc2)n[nH]1 [Compound A-504],< 10,,
COCCOCC(C)(C)N/C(=N/C(=O)c1ccc(F)cc1)Nc1cc(-c2ccc(F)cc2)n[nH]1 [Compound A-507],,,< 10
CC(C)CN/C(=N/C(=O)c1cccc(C#N)c1)Nc1cc(-c2ccc(F)cc2)n[nH]1 [Compound A-508],,,< 10
